{
  "source": "paper PMC12379159",
  "about": "(Journal of Natural Products, 2025)",
  "key": {"[1]": {"molecular_target": "T1, hRORγ LBD (Homo sapiens, UniProt P51449)", "T1 construct": "His tag (N, cleaved yes); made in house; host or cells: Escherichia coli BL21 DE3", "T1 sequence (P51449 264-518)": "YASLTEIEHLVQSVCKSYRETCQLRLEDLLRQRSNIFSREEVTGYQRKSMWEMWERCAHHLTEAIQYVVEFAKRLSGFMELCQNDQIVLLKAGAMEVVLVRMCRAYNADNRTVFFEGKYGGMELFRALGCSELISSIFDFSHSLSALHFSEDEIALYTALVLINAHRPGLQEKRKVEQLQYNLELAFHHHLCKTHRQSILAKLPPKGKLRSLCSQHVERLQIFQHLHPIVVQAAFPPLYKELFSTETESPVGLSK", "assay": "Thermal stability by nano differential scanning fluorimetry (nanoDSF)", "format": "binding", "conditions": "RORγ-LBD with 4 equiv ligand vs without ligand; mean ± SD", "method": "Soluble proteins were purified on Ni Hitrap FFcrude column (Cytiva), followed by His tag removal by thrombin (MP Biomedicals) cleavage and by size exclusion chromatography on HiLoad Superdex200 column (Cytiva) equilibrated in 20 mM Tris-HCl pH 7.5, 150 mM NaCl, 1 mM TCEP (Hampton Research). Purity and homogeneity of the hRORγ LBD were assessed by SDS-PAGE. The purified protein was concentrated to 0.5–1.0 mg/mL with an Amicon Ultra 10 kDa MWCO. The aliquots of purified LBD were incubated with 4 equiv ligands or vehicle for thermal stability experiments.\nFluorescence-based thermal experiments were performed using a Prometheus NT.48 (NanoTemper Technologies, Germany) with grade standard capillaries containing 10 μL of RORγLBD with different ligands. […] NanoTemper PR. Stability Analysis v1.0.2 was used to fit the data and determine the melting temperatures Tm."}, "[2]": {"molecular_target": "T2, Gal4-RORγ H479L (Homo sapiens, UniProt P51449, H479L)", "T2 sequence (P51449 269-508 H479L limits assumed)": "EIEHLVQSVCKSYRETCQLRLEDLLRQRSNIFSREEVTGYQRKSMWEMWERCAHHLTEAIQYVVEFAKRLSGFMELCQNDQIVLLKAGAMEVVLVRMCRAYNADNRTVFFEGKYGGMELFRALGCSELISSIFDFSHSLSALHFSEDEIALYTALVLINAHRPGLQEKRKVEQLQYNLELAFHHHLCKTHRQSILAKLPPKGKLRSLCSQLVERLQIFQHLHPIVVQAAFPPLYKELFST", "assay": "Gal4-RORγ H479L mutant luciferase assay", "conditions": "5 μM", "experimental": "For luciferase assays, 8 × 10^6 HEK293 cells were seeded on 150 mm cell culture dishes and incubated for 5 h. Afterward, cells were transfected with the calcium phosphate coprecipitation method using 5 μg of the nuclear receptor (Gal4-hRORγ or full-length human RORγ), 5 μg of a luciferase reporter (pTK-MH100 × 4-LUC for Gal4-hRORγ experiments or RORE-LUC for full-length human RORγ experiments) and 3 μg eGFP-N1 (for assessing transfection efficiency) plasmid DNA and incubated overnight. […] The medium was changed the following day, and cells were further incubated for another four to 5 h before trypsin/EDTA was added to detach them from the dishes. […] RLUs were normalized to relative fluorescence units (RFU) to account for differences in cell number and transfection efficiency and then normalized to the vehicle control. Results are expressed as fold activation relative to the vehicle control.\nGal4-hRORγ H323A and H479L mutants were generated using the QuikChange Lightning Site-Directed Mutagenesis Kit according to the manufacturer’s instructions. Briefly, 10 ng template DNA (Gal4-hRORγ) was PCR-amplified with the respective mutagenic forward and reverse primers listed in Table S3, which were designed using the QuikChange Primer Design tool (https://www.agilent.com/store/primerDesignProgram.jsp). […] Two μL of the PCR product were then transformed into XL1-Blue competent E. coli according to a protocol provided by NEB. […] After centrifuging the main culture at 5691g for 10 min, the supernatant was decanted, and plasmid preparation was performed using the PureLink HiPure Plasmid Midiprep Kit according to the manufacturer’s instructions. DNA yields and purities were checked using a NanoDrop 2000c (Thermo Fisher Scientific, Waltham, MA, USA)."}, "[3]": {"test_system": "HEK293 cells", "assay": "Resazurin conversion assay in HEK293 cells", "format": "cell-based, human", "conditions": "5 μM, 18 h", "method": "To check the metabolic activity of cells correlating with cell viability, cells were treated with the vehicle control (0.1% DMSO), digitonin as the positive control for cytotoxicity at 20 μg/mL (HEK293 cells) or 50 μg/mL (EL-4-mRORγt cells), or the compounds of interest at 5 μM for 18 h (HEK293 cells) or 20–24 h (EL-4-mRORγt cells). The next day, the medium was carefully removed and replaced with stripped DMEM without phenol red, containing 10 μg/mL resazurin sodium salt. Cells were incubated for 5 h before RFU values were measured at λem = 590 nm using a spectrophotometer. Cell viability was calculated as follows: Cell viability(%)=100×RFU value after compound treatment/RFU value after vehicle control treatment Cytotoxicity was defined as cell viability under 70% according to the ISO 10993–5 guidelines. Cell viability <90% is explicitly stated in the respective figure."}, "[4]": {"test_system": "interleukin 23 receptor (Il23r)", "assay": "RT-qPCR of Il23r in EL-4-mRORγt cells", "format": "cell-based, murine", "conditions": "indicated concentrations, 20–24 h, then 4.5-h PMA and ionomycin", "method": "For RT-qPCR assays, 5 × 10^5 EL-4-mRORγt cells were seeded in 500 μL complete DMEM per well of a 24-well plate and treated with the vehicle control, the positive control, or the compounds of interest. After incubation for 20–24 h, cells were stimulated with Cell Activation Cocktail (PMA: 40.5 μM, ionomycin: 669.3 μM; 500X) for 4.5 h. Afterward, total RNA was isolated using the innuPREP RNA Mini Kit 2.0 according to the manufacturer’s instructions. According to the manufacturer’s instructions, 1 μg RNA was reverse-transcribed into cDNA using the High-Capacity cDNA Reverse Transcription Kit. RT-qPCR was performed using the Luna Universal qPCR Master Mix on a LightCycler 480 (Roche Diagnostics, Rotkreuz, Switzerland) according to the manufacturer’s instructions. […] Livak’s 2−ΔΔCt method was employed to determine the expression levels of RORγ target genes. This involved normalizing the target gene expression to the expression levels of the control gene 18s, followed by further normalization to the vehicle control."}},
  "data": [
    {"compound": "C=C(C)[C@@H]1CC[C@]2(C(=O)O)CC[C@]3(C)[C@H](CC[C@@H]4[C@@]5(C)C/C(=C/c6ccco6)C(=O)C(C)(C)[C@@H]5CC[C@]43C)[C@@H]12", "note": "[Compound 15, (2Z)-2-(2-furanylmethylene)-3-oxolup-20(29)-en-28-oic acid]", "values": [
      {"measurement": "ΔTm measured with nano differential scanning fluorimetry", "setting": "[1]", "value": "9.6 ± 0.4", "unit": "°C"},
      {"measurement": "Activity on Gal4-RORγ H479L vs WT", "setting": "[2]", "value": "loss of activity"},
      {"measurement": "Cytotoxic effects, resazurin conversion assay", "setting": "[3]", "value": "no cytotoxic effects"},
      {"measurement": "Il23r expression", "setting": "[4]", "value": "concentration-dependent down-regulation"}
    ]}
  ]
}
